Values quoted from earlier work as cited in US20230354819A1 (priority 2020, published 2023).
Bridge positions count the residues as written; N and C are the ends. Square brackets hold non-standard residues; d marks the D form. Peptide text beside a SMILES is read from it. * marks the point of attachment. ξ: configuration not given here. Pentadecanoyl(3ξ-OH,15-Gua) = N=C(N)NCCCCCCCCCCCCC(O)CC(=O)*; d(aThr) = C[C@@H](O)[C@@H](N)C(=O)O; Thr(3ξ) = CC(O)[C@H](N)C(=O)O; ξY = NC(Cc1ccc(O)cc1)C(=O)O

What was measured:
[1] = test system: Fusarium oxysporum; settings: WO 2006/016558
[2] = test system: plant pathogenic fungi such as Fusarium oxysporum, Aspergillus niger, Aspergillus oryzae, and Penicillium thomii; settings: J. Antibiotics 49(2), 129-135, 1996; 50(3), 220-228, 1997
[3] = test system: Staphylococcus aureus; design: unit not given here; settings: variety of clinically relevant fungi and gram-positive bacteria such a Staphylococcus aureus; ChemMedChem 7, 871-882, 2012

SMILES	inhibition of growth of Fusarium oxysporum [1]	inhibition of plant pathogenic fungi [2]	MIC value range [3]
CC(C)[C@@H]1NC(=O)[C@@H](C(C)C)NC(=O)[C@@H](NC(=O)CC(O)CCCCCCCCCCCCN=C(N)N)C(C)OC(=O)[C@@H](C)NC(=O)[C@@H](CCC(N)=O)NC(=O)[C@@H]([C@H](C)O)NC1=O (stereo in doubt) [fusaricidin B]	inhibit growth	inhibit plant pathogenic fungi	
CC(C)[C@@H]1NC(=O)[C@@H](C(C)C)NC(=O)[C@@H](NC(=O)CC(O)CCCCCCCCCCCCN=C(N)N)[C@@H](C)OC(=O)[C@@H](C)NC(=O)[C@@H](CC(N)=O)NC(=O)[C@@H]([C@@H](C)O)NC1=O (stereo partly shown) [fusaricidin A] ({Pentadecanoyl(3ξ-OH,15-Gua)}-T[dV]V[d(aThr)][dN][dA]; ester 1-C)	inhibit growth	inhibit plant pathogenic fungi	0.78-3.12
CC1OC(=O)[C@@H](C)NC(=O)[C@@H](CC(N)=O)NC(=O)[C@@H]([C@H](C)O)NC(=O)C(Cc2ccc(O)cc2)NC(=O)[C@@H](C(C)C)NC(=O)[C@H]1NC(=O)CC(O)CCCCCCCCCCCCN=C(N)N (stereo partly shown) [fusaricidin C] ({Pentadecanoyl(3ξ-OH,15-Gua)}-[Thr(3ξ)][dV][ξY][dT][dN][dA]; ester 1-C)		inhibit plant pathogenic fungi	
CC1OC(=O)[C@@H](C)NC(=O)[C@@H](CCC(N)=O)NC(=O)[C@@H]([C@H](C)O)NC(=O)C(Cc2ccc(O)cc2)NC(=O)[C@@H](C(C)C)NC(=O)[C@H]1NC(=O)CC(O)CCCCCCCCCCCCN=C(N)N (stereo partly shown) [fusaricidin D] ({Pentadecanoyl(3ξ-OH,15-Gua)}-[Thr(3ξ)][dV][ξY][dT][dQ][dA]; ester 1-C)		inhibit plant pathogenic fungi	
